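Exposure lasted 48 hours, with cells grown in 96-well plates and compounds tested at five concentrations. TGI denotes the concentration required for complete inhibition of growth.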
How the values were obtained:
Test in all cases: NCI-60 cell line screen, 48 h
786-0 renal = tested on: 786-0 renal
A498 renal = tested on: A498 renal
A549 NSCLC = tested on: A549 NSCLC
ACHN renal = tested on: ACHN renal
BT-549 breast = tested on: BT-549 breast
CAKI-1 renal = tested on: CAKI-1 renal
CCRF-CEM leukemia = tested on: CCRF-CEM leukemia
COLO 205 colon = tested on: COLO 205 colon
DU-145 prostate = tested on: DU-145 prostate
EKVX NSCLC = tested on: EKVX NSCLC
HCT-116 colon = tested on: HCT-116 colon
HCT-15 colon = tested on: HCT-15 colon
HOP-62 NSCLC = tested on: HOP-62 NSCLC
HOP-92 NSCLC = tested on: HOP-92 NSCLC
HS 578T breast = tested on: HS 578T breast
HT29 colon = tested on: HT29 colon
IGROV1 ovarian = tested on: IGROV1 ovarian
K-562 leukemia = tested on: K-562 leukemia
KM12 colon = tested on: KM12 colon
LOX IMVI melanoma = tested on: LOX IMVI melanoma
M14 melanoma = tested on: M14 melanoma
MALME-3M melanoma = tested on: MALME-3M melanoma
MCF7 breast = tested on: MCF7 breast
MDA-MB-231 breast = tested on: MDA-MB-231 breast
MDA-MB-435 = tested on: MDA-MB-435
MDA-N = tested on: MDA-N
MOLT-4 leukemia = tested on: MOLT-4 leukemia
NCI-H23 lung = tested on: NCI-H23 lung
NCI-H460 lung = tested on: NCI-H460 lung
NCI-H522 lung = tested on: NCI-H522 lung
NCI/ADR-RES ovarian = tested on: NCI/ADR-RES ovarian
OVCAR-3 ovarian = tested on: OVCAR-3 ovarian
OVCAR-4 ovarian = tested on: OVCAR-4 ovarian
OVCAR-5 ovarian = tested on: OVCAR-5 ovarian
OVCAR-8 ovarian = tested on: OVCAR-8 ovarian
PC-3 prostate = tested on: PC-3 prostate
RPMI-8226 leukemia = tested on: RPMI-8226 leukemia
RXF 393 renal = tested on: RXF 393 renal
SF-268 CNS = tested on: SF-268 CNS
SF-295 CNS = tested on: SF-295 CNS
SF-539 CNS = tested on: SF-539 CNS
SK-MEL-2 melanoma = tested on: SK-MEL-2 melanoma
SK-MEL-28 melanoma = tested on: SK-MEL-28 melanoma
SK-MEL-5 melanoma = tested on: SK-MEL-5 melanoma
SK-OV-3 ovarian = tested on: SK-OV-3 ovarian
SN12C renal = tested on: SN12C renal
SNB-19 CNS = tested on: SNB-19 CNS
SNB-75 CNS = tested on: SNB-75 CNS
SR leukemia = tested on: SR leukemia
SW-620 colon = tested on: SW-620 colon
T-47D breast = tested on: T-47D breast
TK-10 renal = tested on: TK-10 renal
U251 CNS = tested on: U251 CNS
UACC-62 melanoma = tested on: UACC-62 melanoma
UO-31 renal = tested on: UO-31 renal
HL-60(TB) leukemia = tested on: HL-60(TB) leukemia
UACC-257 melanoma = tested on: UACC-257 melanoma

Measured: TGI

CC(C)(C)c1ccc(O)c(C[N+](C)(C)C)c1
not listed: HL-60(TB) leukemia | UACC-257 melanoma
> 100 µM: all other assays above

C=C(Br)CN(C)CC(=C)Br
not listed: SF-539 CNS
> 100 µM: all other assays above
